Experimental data published in PubChem BioAssay (NCI).
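Cells were grown in 96-well plates and exposed to each compound for 48 hours at five concentrations; endpoints were interpolated linearly between bracketing concentrations, or set to the highest concentration if not reached. The concentration for full growth arrest is given as TGI.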

Assays:
Test in all cases: NCI anticancer screen, dose series, 48 h
SK-OV-3 ovarian = system: SK-OV-3 ovarian
SF-539 CNS = system: SF-539 CNS
SN12C renal = system: SN12C renal
SK-MEL-28 melanoma = system: SK-MEL-28 melanoma
RXF 393 renal = system: RXF 393 renal
SF-268 CNS = system: SF-268 CNS
OVCAR-8 ovarian = system: OVCAR-8 ovarian
NCI-H460 lung = system: NCI-H460 lung
T-47D breast = system: T-47D breast
BT-549 breast = system: BT-549 breast
SNB-75 CNS = system: SNB-75 CNS
U251 CNS = system: U251 CNS
MDA-MB-231 breast = system: MDA-MB-231 breast
DU-145 prostate = system: DU-145 prostate
SR leukemia = system: SR leukemia
EKVX NSCLC = system: EKVX NSCLC
786-0 renal = system: 786-0 renal
OVCAR-5 ovarian = system: OVCAR-5 ovarian
HT29 colon = system: HT29 colon
SK-MEL-2 melanoma = system: SK-MEL-2 melanoma
HCC-2998 colon = system: HCC-2998 colon
MDA-MB-435 = system: MDA-MB-435
K-562 leukemia = system: K-562 leukemia
HS 578T breast = system: HS 578T breast
HOP-92 NSCLC = system: HOP-92 NSCLC
ACHN renal = system: ACHN renal
NCI-H226 lung = system: NCI-H226 lung
MOLT-4 leukemia = system: MOLT-4 leukemia
PC-3 prostate = system: PC-3 prostate
HCT-116 colon = system: HCT-116 colon
OVCAR-4 ovarian = system: OVCAR-4 ovarian
A498 renal = system: A498 renal
SK-MEL-5 melanoma = system: SK-MEL-5 melanoma
LOX IMVI melanoma = system: LOX IMVI melanoma
CAKI-1 renal = system: CAKI-1 renal
MDA-N = system: MDA-N
RPMI-8226 leukemia = system: RPMI-8226 leukemia
SW-620 colon = system: SW-620 colon
HCT-15 colon = system: HCT-15 colon
COLO 205 colon = system: COLO 205 colon
UO-31 renal = system: UO-31 renal
OVCAR-3 ovarian = system: OVCAR-3 ovarian
M14 melanoma = system: M14 melanoma
KM12 colon = system: KM12 colon
HOP-62 NSCLC = system: HOP-62 NSCLC
IGROV1 ovarian = system: IGROV1 ovarian
MCF7 breast = system: MCF7 breast
A549 NSCLC = system: A549 NSCLC
SF-295 CNS = system: SF-295 CNS
NCI-H23 lung = system: NCI-H23 lung
NCI-H522 lung = system: NCI-H522 lung
CCRF-CEM leukemia = system: CCRF-CEM leukemia
HL-60(TB) leukemia = system: HL-60(TB) leukemia
SNB-19 CNS = system: SNB-19 CNS
UACC-257 melanoma = system: UACC-257 melanoma
MALME-3M melanoma = system: MALME-3M melanoma
UACC-62 melanoma = system: UACC-62 melanoma
TK-10 renal = system: TK-10 renal
NCI/ADR-RES ovarian = system: NCI/ADR-RES ovarian

`OCCCNCC(O)c1ccc(OCc2ccccc2)c(OCc2ccccc2)c1` (stereo not drawn) gave a TGI (SK-OV-3 ovarian) of 24.4 µM, a TGI (SF-539 CNS) of 27.2 µM and a TGI (SN12C renal) of 29.7 µM. For the same molecule, the TGI (SK-MEL-28 melanoma) was 20.4 µM, the TGI (RXF 393 renal) was 42.7 µM and the TGI (SF-268 CNS) was 30.9 µM. The TGI (OVCAR-8 ovarian) was 26.6 µM, the TGI (NCI-H460 lung) was 15.8 µM and the TGI (T-47D breast) was 34.4 µM. It also gave a TGI (BT-549 breast) of 31.9 µM, a TGI (SNB-75 CNS) of 14.1 µM and a TGI (U251 CNS) of 23.1 µM. It also gave a TGI (MDA-MB-231 breast) of 28.7 µM, a TGI (DU-145 prostate) of 30.8 µM and a TGI (SR leukemia) of 28 µM. The TGI (EKVX NSCLC) was 30.4 µM, the TGI (786-0 renal) was 14.3 µM and the TGI (OVCAR-5 ovarian) was 29.5 µM. The TGI (HT29 colon) was 16 µM, the TGI (SK-MEL-2 melanoma) was 15.1 µM and the TGI (HCC-2998 colon) was 10 µM. The TGI (MDA-MB-435) was 15.2 µM, the TGI (K-562 leukemia) was 33.5 µM and the TGI (HS 578T breast) was 35.6 µM. The TGI (HOP-92 NSCLC) was 24.1 µM, the TGI (ACHN renal) was 23.8 µM and the TGI (NCI-H226 lung) was 29.7 µM. The TGI (MOLT-4 leukemia) was 19.2 µM, the TGI (PC-3 prostate) was 25.4 µM and the TGI (HCT-116 colon) was 18.3 µM. It also gave a TGI (OVCAR-4 ovarian) of 18.3 µM, a TGI (A498 renal) of 25.8 µM and a TGI (SK-MEL-5 melanoma) of 13.5 µM. For the same molecule, the TGI (LOX IMVI melanoma) was 13.7 µM, the TGI (CAKI-1 renal) was 32.5 µM and the TGI (MDA-N) was 21.6 µM. It also gave a TGI (RPMI-8226 leukemia) of 19.9 µM, a TGI (SW-620 colon) of 15.8 µM and a TGI (HCT-15 colon) of 27.5 µM. The TGI (COLO 205 colon) was 10.2 µM, the TGI (UO-31 renal) was 28.8 µM and the TGI (OVCAR-3 ovarian) was 30.4 µM. The TGI (M14 melanoma) was 31.5 µM, the TGI (KM12 colon) was 26 µM and the TGI (HOP-62 NSCLC) was 28.8 µM. For the same molecule, the TGI (IGROV1 ovarian) was 23.4 µM, the TGI (MCF7 breast) was 16 µM and the TGI (A549 NSCLC) was 26.3 µM. The TGI (SF-295 CNS) was 20.8 µM, the TGI (NCI-H23 lung) was 33.3 µM and the TGI (NCI-H522 lung) was 30 µM. For the same molecule, the TGI (CCRF-CEM leukemia) was 17.5 µM, the TGI (HL-60(TB) leukemia) was 21.4 µM and the TGI (SNB-19 CNS) was 38.5 µM. It also gave a TGI (UACC-257 melanoma) of 25.6 µM, a TGI (MALME-3M melanoma) of 29.7 µM and a TGI (UACC-62 melanoma) of 42.8 µM. It also gave a TGI (TK-10 renal) of 15.8 µM and a TGI (NCI/ADR-RES ovarian) of 37.2 µM.

`CN(CCN(C)CCN(C)C(=O)Cc1ccc(Cl)c(Cl)c1)CCN1CCCC1` was tested, and the TGI (SK-OV-3 ovarian) was over 100 µM, the TGI (SF-539 CNS) was 46.2 µM and the TGI (SN12C renal) was over 100 µM. The TGI (SK-MEL-28 melanoma) was 6.07 µM, the TGI (RXF 393 renal) was 39 µM and the TGI (SF-268 CNS) was over 100 µM. It also gave a TGI (OVCAR-8 ovarian) of over 100 µM, a TGI (NCI-H460 lung) of 82.1 µM and a TGI (T-47D breast) of 51.7 µM. It also gave a TGI (BT-549 breast) of 77.1 µM, a TGI (SNB-75 CNS) of 73.3 µM and a TGI (U251 CNS) of 41.3 µM. It also gave a TGI (MDA-MB-231 breast) of 53.9 µM, a TGI (DU-145 prostate) of over 100 µM and a TGI (SR leukemia) of 34.1 µM. It also gave a TGI (EKVX NSCLC) of over 100 µM, a TGI (786-0 renal) of 49.6 µM and a TGI (OVCAR-5 ovarian) of over 100 µM. For the same molecule, the TGI (HT29 colon) was 27.3 µM, the TGI (SK-MEL-2 melanoma) was 31.8 µM and the TGI (HCC-2998 colon) was 26 µM. It also gave a TGI (MDA-MB-435) of 21.6 µM, a TGI (K-562 leukemia) of 12.9 µM and a TGI (HS 578T breast) of over 100 µM. It also gave a TGI (HOP-92 NSCLC) of 24.1 µM, a TGI (ACHN renal) of over 100 µM and a TGI (NCI-H226 lung) of 61.3 µM. The TGI (MOLT-4 leukemia) was 29.1 µM, the TGI (PC-3 prostate) was over 100 µM and the TGI (HCT-116 colon) was over 100 µM. It also gave a TGI (OVCAR-4 ovarian) of over 100 µM, a TGI (A498 renal) of 32 µM and a TGI (SK-MEL-5 melanoma) of 35.3 µM. It also gave a TGI (LOX IMVI melanoma) of 36.3 µM, a TGI (CAKI-1 renal) of over 100 µM and a TGI (MDA-N) of 25.1 µM. The TGI (RPMI-8226 leukemia) was 22.8 µM, the TGI (SW-620 colon) was over 100 µM and the TGI (HCT-15 colon) was over 100 µM. For the same molecule, the TGI (COLO 205 colon) was 33.8 µM, the TGI (UO-31 renal) was 3.93 µM and the TGI (OVCAR-3 ovarian) was over 100 µM. For the same molecule, the TGI (M14 melanoma) was over 100 µM, the TGI (KM12 colon) was over 100 µM and the TGI (HOP-62 NSCLC) was 86.1 µM. For the same molecule, the TGI (IGROV1 ovarian) was over 100 µM, the TGI (MCF7 breast) was 57.2 µM and the TGI (A549 NSCLC) was over 100 µM. The TGI (SF-295 CNS) was 41.5 µM, the TGI (NCI-H23 lung) was over 100 µM and the TGI (NCI-H522 lung) was 41.4 µM. The TGI (CCRF-CEM leukemia) was 30.9 µM, the TGI (HL-60(TB) leukemia) was 61.3 µM and the TGI (SNB-19 CNS) was over 100 µM. It also gave a TGI (UACC-257 melanoma) of 17.5 µM, a TGI (MALME-3M melanoma) of 36.6 µM and a TGI (UACC-62 melanoma) of 16.6 µM. The TGI (TK-10 renal) was 58.1 µM and the TGI (NCI/ADR-RES ovarian) was over 100 µM.
